Laboratory results: paper PMC9415951 (Viruses, 2022)
Entries after “also recorded” stand apart in the source; their conditions may differ. Counter-ions that a name gives are not always drawn. Like-named read-outs stand apart in the source and are kept apart here.

What was measured:
[1] = molecular target: recombinant human factor Xa (Homo sapiens, UniProt P00742); test: Factor Xa inhibition assay (chromogenic substrate S-2765); format: biochemical
SARS-CoV-2 [2] = format: cell-based; conditions: 100 µM, virus coincubated with compound before infecting VERO cells
SARS-CoV-2 [3] = test: microbe, parasite or virus in culture; format: cell-based; conditions: for protective effect against SARS-CoV-2 infectivity (in words): preincubation 2 h, crystal violet 72 h after infection; for inhibition at 100 µM: Severe acute respiratory syndrome coronavirus 2, Vero
[4] = Cytotoxicity assay (XTT) on VERO cells; format: cell-based, African green monkey; conditions: African green monkey
VERO cells = test: Cytotoxicity assay (XTT) on VERO cells; format: cell-based, African green monkey; conditions: 72 h, 100 µM
bovine thrombin = bovine thrombin (Bos taurus, UniProt P00735); test: Thrombin inhibition assay (chromogenic substrate S-2238); format: biochemical
[5] = Stability in pooled human serum (RP-HPLC); format: in vitro ADME; conditions: for residual, % of the starting concentration: human serum
[6] = Stability in phosphate buffer solution pH 7.4 (RP-HPLC); format: physicochemical; conditions: for residual, % of the starting concentration: pH 7.4 buffer
[7] = Cheng-Prousoff from IC50, mean of three measurements, read-out: Enzyme Inhibition, Ki, Factor Xa
[8] = Cheng-Prousoff from IC50, mean of three measurements, read-out: Enzyme Inhibition, Ki, Thrombin
[9] = VERO cells, confluent monolayers (mock-infected), 72 h, XTT, read-out: VERO Cells Toxicity, CC50

Sequence of recombinant human factor Xa (P00742 235-488 limits assumed): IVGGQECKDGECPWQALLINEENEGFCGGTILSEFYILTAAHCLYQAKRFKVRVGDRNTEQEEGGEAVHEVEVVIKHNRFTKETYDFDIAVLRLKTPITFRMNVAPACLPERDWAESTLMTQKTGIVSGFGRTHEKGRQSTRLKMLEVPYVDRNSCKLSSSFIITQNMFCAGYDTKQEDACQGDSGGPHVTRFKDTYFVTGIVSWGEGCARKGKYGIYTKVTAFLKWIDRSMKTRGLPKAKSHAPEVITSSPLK
Sequence of recombinant human factor Xa (P00742 41-179 partner limits assumed): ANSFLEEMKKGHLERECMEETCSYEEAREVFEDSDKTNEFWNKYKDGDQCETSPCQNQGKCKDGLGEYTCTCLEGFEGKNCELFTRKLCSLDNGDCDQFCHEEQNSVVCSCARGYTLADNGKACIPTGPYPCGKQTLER

N=C(N)N1CCC(C(=O)Nc2ccccc2OCc2cc(-c3ccc(Cl)s3)on2)CC1 [Compound 1]
Ki [1, 7]: 2 nM
effect on SARS-CoV-2 infectivity (in words) (SARS-CoV-2 [2]): did decrease viral infectivity
protective effect against SARS-CoV-2 infectivity (in words) (SARS-CoV-2 [3]; 100 µM): weak (nonsignificant) protective effect
CC50 at 72 h [4]: > 200000 nM
VERO Cells Toxicity, Cytotoxicity at 100 µM (% of nonviable cells) (VERO cells; African green monkey): 20.3 ± 0.9%
Ki (bovine thrombin; [8]): 6820 nM

O=C(NC[C@H]1CN(c2ccc(N3CCOCC3=O)cc2)C(=O)O1)c1ccc(Cl)s1 [Rivaroxaban, rivaroxaban]
inhibition mechanism, fXa ([1]; time-dependent inhibition): reversible inhibitors
protective effect against SARS-CoV-2 infectivity (in words) (SARS-CoV-2 [3]; 100 µM): did not show any effect; also recorded: did not show any ability to reduce the virus infectivity
CC50 at 72 h [4, 9]: > 200000 nM
VERO Cells Toxicity, Cytotoxicity at 100 µM (% of nonviable cells) (VERO cells; XTT, mock-infected VERO cells): 29.4 ± 0.8%
Ki (bovine thrombin): 12000 nM
inhibition mechanism, thrombin (bovine thrombin; time-dependent inhibition): reversible inhibitors

N=C(N)N1CCC(C(=O)Nc2cccc(OCc3cc(-c4ccc(Cl)s4)on3)c2)CC1 [Compound 3]
Ki [1, 7]: 15 nM
Ki ([1]; Ki, factor Xa, time-dependent inhibition, incubation time 0 min): 20 ± 7 nM
Ki ([1]; Ki, factor Xa, time-dependent inhibition, incubation time 15 min): 17 ± 8 nM
effect on SARS-CoV-2 infectivity (in words) (SARS-CoV-2 [2]): did decrease viral infectivity; also recorded: best candidate against the viral infection
protective effect against SARS-CoV-2 infectivity (in words) (SARS-CoV-2 [3]; 100 µM): completely inhibited; also recorded: statistically significant protective effects; also recorded: totally block SARS-CoV-2 entry
inhibition at 100 µM (SARS-CoV-2 [3]; read-out: inhibition of virus infectivity): 100%
inhibitory effects on SARS-CoV-2 infection (SARS-CoV-2 [3]; lower concentrations 3–50 µM, preincubation, VERO cells): ca. 30%
residual, % of the starting concentration ([5]; 0 h): 100%
residual, % of the starting concentration ([5]; 1 h): 95.8±1.0%
residual, % of the starting concentration ([5]; 4 h): 96.6±1.5%
residual, % of the starting concentration ([5]; 12 h): 93.2±2.5%
residual, % of the starting concentration ([5]; 24 h): 96.8±3.0%
hydrolytic degradation after 24 h ([5]; pooled blood human serum, 24 h): less than 10%
CC50 at 72 h ([4]; 72 h, XTT, read-out: VERO Cells Toxicity, CC50): 155000 ± 16000 nM
time dependence of inhibition constant (bovine thrombin; preincubation 0, 15, 30 min): did not show any significant time-dependent change in inhibition constant
hydrolytic degradation after 24 h ([6]; PBS pH 7.4, 24 h): less than 10%
residual, % of the starting concentration ([6]; 0 h): 100%
residual, % of the starting concentration ([6]; 1 h): 98.8±0.5%
residual, % of the starting concentration ([6]; 4 h): 98.1±1.5%
residual, % of the starting concentration ([6]; 12 h): 97.5±0.5%
residual, % of the starting concentration ([6]; 24 h): 97.9±1.0%

CC(C)N1CCC(C(=O)Nc2ccccc2OCc2cc(-c3ccc(Cl)s3)on2)CC1 [Compound 2]
Ki [1, 7]: 0.3 nM
protective effect against SARS-CoV-2 infectivity (in words) (SARS-CoV-2 [3]; 100 µM): did not show any ability to reduce the virus infectivity
CC50 at 72 h [4]: > 200000 nM
VERO Cells Toxicity, Cytotoxicity at 100 µM (% of nonviable cells) (VERO cells; African green monkey): 7.45 ± 0.24%

[H]/N=C(/N)c1ccc(NCc2nc3cc(C(=O)N(CCC(=O)O)c4ccccn4)ccc3n2C)cc1 [Dabigatran, dabigatran]
inhibition mechanism, fXa ([1]; time-dependent inhibition): reversible inhibitors
protective effect against SARS-CoV-2 infectivity (in words) (SARS-CoV-2 [3]; 100 µM): did not show any effect; also recorded: did not show any ability to reduce the virus infectivity
CC50 at 72 h [4, 9]: > 200000 nM
VERO Cells Toxicity, Cytotoxicity at 100 µM (% of nonviable cells) (VERO cells; XTT, mock-infected VERO cells): 18.3 ± 0.8%
inhibition mechanism, thrombin (bovine thrombin): reversible inhibitors

N=C(N)c1ccc2cc(OC(=O)c3ccc(N=C(N)N)cc3)ccc2c1 [Nafamostat, Nafamostat mesylate]
Ki ([1]; incubation time 0 min, read-out: Ki, factor Xa, time-dependent inhibition): 363 ± 6 nM
Ki ([1]; incubation time 15 min, read-out: Ki, factor Xa, time-dependent inhibition): 340 ± 10 nM
Ki ([1]; incubation time 30 min, read-out: Ki, factor Xa, time-dependent inhibition): 225 ± 9 nM
inhibition mechanism, fXa ([1]; time-dependent inhibition): covalent inhibitor
protective effect against SARS-CoV-2 infectivity (in words) (SARS-CoV-2 [3]; 100 µM): did not achieve statistically significant activity
protective effect against SARS-CoV-2 infectivity (in words) (SARS-CoV-2 [3]; 100 µM, listed as NAF): weak (nonsignificant) protective effect
cellular monolayer preserved (SARS-CoV-2 [3]; 100 µM, preincubation, crystal violet staining): around 60%
cells with SARS-CoV-2 detected (SARS-CoV-2 [3]; 100 µM, preincubation, immunofluorescence): ~ 25%
activity against SARS-CoV-2 infection over scalar concentrations (in words) (SARS-CoV-2 [3]; 3–100 µM, preincubation): not to have statistically significant activity
inhibition at 100 µM (SARS-CoV-2 [3]; read-out: reduction of viral entry (inhibition)): ~20%
inhibition of SARS-CoV-2 infection (SARS-CoV-2 [3]; whole range of test concentrations 3–100 µM, VERO cells): 15–20%
residual, % of the starting concentration ([5]; 0 h): 100%
residual, % of the starting concentration ([5]; 0.5 h): 45.9±4.3%
residual, % of the starting concentration ([5]; 1 h): 21.2±5.2%
residual, % of the starting concentration ([5]; 2 h): 5.1±3.3%
half-life at 100 µM ([5]; pooled human serum, 37 °C, read-out: half-life in human pooled blood serum): 0.267 h
CC50 at 72 h [4, 9]: > 200000 nM
VERO Cells Toxicity, Cytotoxicity at 100 µM (% of nonviable cells) (VERO cells; XTT, mock-infected VERO cells): 16.0 ± 0.8%
Ki (bovine thrombin; [8]): 10 nM
Ki (bovine thrombin; incubation time 0 min, read-out: Ki, thrombin, time-dependent inhibition): 77 nM
Ki (bovine thrombin; incubation time 15 min, read-out: Ki, thrombin, time-dependent inhibition): 13 nM
Ki (bovine thrombin; incubation time 30 min, read-out: Ki, thrombin, time-dependent inhibition): 5 nM
inhibition mechanism, thrombin (bovine thrombin; time-dependent inhibition): covalent inhibitor
residual, % of the starting concentration ([6]; 0 h): 100%
residual, % of the starting concentration ([6]; 0.5 h): 95.1±0.5%
residual, % of the starting concentration ([6]; 1 h): 87.6±1.2%
residual, % of the starting concentration ([6]; 2 h): 84.9±1.0%
residual, % of the starting concentration ([6]; 4 h): 81.6±1.8%
residual, % of the starting concentration ([6]; 8 h): 78.4±2.5%
residual, % of the starting concentration ([6]; 12 h): 73.8±3.0%
residual, % of the starting concentration ([6]; 24 h): 61.4±2.8%
half-life at 100 µM ([6]; phosphate buffer solution (PBS), PBS pH 7.4, 37 °C): ~45 h
